Activity calls are given as the source filed them.
Experiments:
Assay type in all cases: functional, organism-based
Escherichia coli = test: Antibacterial activity against Escherichia coli by paper disk diffusion method
Pseudomonas sp. = test: Antibacterial activity against Pseudomonas sp. by paper disk diffusion method
Staphylococcus aureus = test: Antibacterial activity against Staphylococcus aureus by paper disk diffusion method
[1] = tested on: Staphylococcus epidermidis; test: Antibacterial activity against Staphylococcus epidermidis by paper disk diffusion method
Salmonella sp. = test: Antibacterial activity against Salmonella sp. by paper disk diffusion method

Measured: Activity

C=C[C@@]1(C)CC[C@H]2[C@]3(C)C(=O)C[C@@H](Br)C(C)(C)[C@H]3[C@@H](O)C[C@]2(C)O1
inactive: all assays above

C=C[C@@]1(C)CC[C@H]2[C@]3(C)[C@@H](OC(C)=O)C[C@@H](Br)C(C)(C)[C@H]3[C@@H](O)C[C@]2(C)O1
inactive: all assays above

From ChEMBL document CHEMBL1150582, “Brominated labdane-type diterpenoids from an Okinawan Laurencia sp” (J Nat Prod, 2002)
